{"source": "ChEMBL document CHEMBL5291721", "about": "“A preclinical secondary pharmacology resource illuminates target-adverse drug reaction associations of marketed drugs” (Nat Commun, 2023); also: assay procedure not described here", "key": {"Histamine H2 receptor": {"target": "Histamine H2 receptor (Homo sapiens, UniProt P25021)", "sequence (P25021 whole entry)": "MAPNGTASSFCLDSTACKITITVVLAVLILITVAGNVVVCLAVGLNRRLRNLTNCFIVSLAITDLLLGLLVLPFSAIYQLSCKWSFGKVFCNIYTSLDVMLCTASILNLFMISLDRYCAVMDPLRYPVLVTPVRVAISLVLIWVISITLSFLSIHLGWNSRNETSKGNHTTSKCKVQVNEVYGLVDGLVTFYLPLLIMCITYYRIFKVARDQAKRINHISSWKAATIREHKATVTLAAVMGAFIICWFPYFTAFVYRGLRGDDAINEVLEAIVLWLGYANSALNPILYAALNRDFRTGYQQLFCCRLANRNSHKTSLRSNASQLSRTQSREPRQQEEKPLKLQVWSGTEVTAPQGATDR", "assay_type": "functional, cell-based"}, "[1]": {"target": "T1, 5-hydroxytryptamine receptor 1A (Homo sapiens, UniProt P08908)", "T1 sequence (P08908 whole entry)": "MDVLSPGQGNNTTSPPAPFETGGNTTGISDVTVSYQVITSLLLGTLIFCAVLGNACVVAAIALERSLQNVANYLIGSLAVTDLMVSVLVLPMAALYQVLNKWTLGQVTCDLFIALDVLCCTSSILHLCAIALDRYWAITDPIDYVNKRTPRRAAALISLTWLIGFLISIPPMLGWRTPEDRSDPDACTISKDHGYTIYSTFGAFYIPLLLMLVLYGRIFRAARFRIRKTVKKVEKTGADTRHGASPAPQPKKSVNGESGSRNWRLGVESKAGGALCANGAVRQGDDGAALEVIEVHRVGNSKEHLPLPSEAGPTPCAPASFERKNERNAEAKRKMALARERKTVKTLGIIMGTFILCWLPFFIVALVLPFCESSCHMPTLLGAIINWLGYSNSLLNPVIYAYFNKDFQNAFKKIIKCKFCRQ", "assay_type": "functional, cell-based"}, "[2]": {"target": "T2, Alpha-1A adrenergic receptor (Homo sapiens, UniProt P35348)", "T2 sequence (P35348 whole entry)": "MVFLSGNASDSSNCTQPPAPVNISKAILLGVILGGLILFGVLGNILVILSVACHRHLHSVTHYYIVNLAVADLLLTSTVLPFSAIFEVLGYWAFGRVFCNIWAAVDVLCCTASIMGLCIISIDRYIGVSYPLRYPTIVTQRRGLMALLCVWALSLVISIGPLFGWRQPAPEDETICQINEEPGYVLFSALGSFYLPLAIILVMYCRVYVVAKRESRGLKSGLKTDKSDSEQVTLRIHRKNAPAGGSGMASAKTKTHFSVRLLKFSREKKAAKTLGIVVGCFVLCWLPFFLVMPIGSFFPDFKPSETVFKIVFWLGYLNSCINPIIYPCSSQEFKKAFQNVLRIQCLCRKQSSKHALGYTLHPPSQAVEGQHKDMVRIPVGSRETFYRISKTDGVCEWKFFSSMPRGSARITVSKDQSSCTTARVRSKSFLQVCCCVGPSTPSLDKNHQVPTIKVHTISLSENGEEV", "assay_type": "functional, cell-based"}, "[3]": {"target": "T3, Gamma-aminobutyric acid receptor subunit alpha-1 (Rattus norvegicus, UniProt P62813)", "T3 sequence (P62813 whole entry)": "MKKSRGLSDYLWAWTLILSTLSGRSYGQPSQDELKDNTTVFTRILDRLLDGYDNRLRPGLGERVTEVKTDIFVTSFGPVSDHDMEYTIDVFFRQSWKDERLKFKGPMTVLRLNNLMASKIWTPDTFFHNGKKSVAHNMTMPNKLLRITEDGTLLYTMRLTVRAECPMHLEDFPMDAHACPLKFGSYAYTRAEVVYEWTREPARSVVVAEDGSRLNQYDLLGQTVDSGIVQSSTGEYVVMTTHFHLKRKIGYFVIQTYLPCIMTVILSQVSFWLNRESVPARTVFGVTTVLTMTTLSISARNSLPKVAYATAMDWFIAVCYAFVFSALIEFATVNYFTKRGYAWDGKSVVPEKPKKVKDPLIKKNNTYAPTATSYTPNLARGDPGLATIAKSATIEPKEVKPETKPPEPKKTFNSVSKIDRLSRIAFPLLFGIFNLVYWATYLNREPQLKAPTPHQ", "assay_type": "functional"}, "[4]": {"target": "T4, 5-hydroxytryptamine receptor 2B (Homo sapiens, UniProt P41595)", "T4 sequence (P41595 whole entry)": "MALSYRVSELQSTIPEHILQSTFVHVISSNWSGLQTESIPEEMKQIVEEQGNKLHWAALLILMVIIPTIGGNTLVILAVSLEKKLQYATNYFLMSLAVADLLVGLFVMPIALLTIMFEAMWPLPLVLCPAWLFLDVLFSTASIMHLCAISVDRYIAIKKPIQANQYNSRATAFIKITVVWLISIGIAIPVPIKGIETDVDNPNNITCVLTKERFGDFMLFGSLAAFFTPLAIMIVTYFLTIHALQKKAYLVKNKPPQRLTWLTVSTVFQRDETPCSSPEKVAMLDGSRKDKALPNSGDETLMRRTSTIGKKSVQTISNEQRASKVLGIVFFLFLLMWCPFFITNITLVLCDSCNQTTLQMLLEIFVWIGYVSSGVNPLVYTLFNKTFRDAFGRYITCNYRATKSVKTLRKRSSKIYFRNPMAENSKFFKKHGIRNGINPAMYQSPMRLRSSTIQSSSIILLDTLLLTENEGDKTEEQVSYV", "assay_type": "functional, cell-based"}, "Mu-type opioid receptor [5]": {"target": "T5, Mu-type opioid receptor (Homo sapiens, UniProt P35372)", "T5 sequence (P35372 whole entry)": "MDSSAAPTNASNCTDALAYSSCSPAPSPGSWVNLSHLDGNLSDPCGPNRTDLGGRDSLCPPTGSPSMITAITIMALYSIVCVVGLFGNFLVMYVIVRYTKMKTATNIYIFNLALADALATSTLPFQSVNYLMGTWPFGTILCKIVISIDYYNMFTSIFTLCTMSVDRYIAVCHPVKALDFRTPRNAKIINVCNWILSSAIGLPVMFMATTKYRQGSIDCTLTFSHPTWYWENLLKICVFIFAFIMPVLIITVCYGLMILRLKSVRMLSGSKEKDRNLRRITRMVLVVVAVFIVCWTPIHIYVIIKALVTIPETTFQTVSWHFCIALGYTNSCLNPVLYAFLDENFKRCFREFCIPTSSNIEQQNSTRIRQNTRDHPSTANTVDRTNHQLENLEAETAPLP"}, "[6]": {"target": "T4, 5-hydroxytryptamine receptor 2B", "assay_type": "functional, cell-based", "remark": "listed apart in the source"}, "[7]": {"target": "Glutamate receptor ionotropic, NMDA 1 (Rattus norvegicus, UniProt P35439)"}, "D(3) dopamine receptor": {"target": "D(3) dopamine receptor (Homo sapiens, UniProt P35462)", "sequence (P35462 whole entry)": "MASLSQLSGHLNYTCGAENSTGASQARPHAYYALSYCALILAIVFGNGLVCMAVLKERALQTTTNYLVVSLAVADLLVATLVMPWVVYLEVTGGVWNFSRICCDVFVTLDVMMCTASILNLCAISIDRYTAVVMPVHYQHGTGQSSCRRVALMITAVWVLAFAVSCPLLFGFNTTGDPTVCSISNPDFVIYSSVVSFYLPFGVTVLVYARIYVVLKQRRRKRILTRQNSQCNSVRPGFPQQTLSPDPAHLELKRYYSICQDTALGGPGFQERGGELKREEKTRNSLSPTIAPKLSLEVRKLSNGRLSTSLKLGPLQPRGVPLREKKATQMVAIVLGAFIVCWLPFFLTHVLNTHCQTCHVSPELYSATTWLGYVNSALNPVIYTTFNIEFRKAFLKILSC"}, "[8]": {"target": "T4, 5-hydroxytryptamine receptor 2B"}, "[9]": {"target": "Delta-type opioid receptor (Homo sapiens, UniProt P41143)", "sequence (P41143 whole entry)": "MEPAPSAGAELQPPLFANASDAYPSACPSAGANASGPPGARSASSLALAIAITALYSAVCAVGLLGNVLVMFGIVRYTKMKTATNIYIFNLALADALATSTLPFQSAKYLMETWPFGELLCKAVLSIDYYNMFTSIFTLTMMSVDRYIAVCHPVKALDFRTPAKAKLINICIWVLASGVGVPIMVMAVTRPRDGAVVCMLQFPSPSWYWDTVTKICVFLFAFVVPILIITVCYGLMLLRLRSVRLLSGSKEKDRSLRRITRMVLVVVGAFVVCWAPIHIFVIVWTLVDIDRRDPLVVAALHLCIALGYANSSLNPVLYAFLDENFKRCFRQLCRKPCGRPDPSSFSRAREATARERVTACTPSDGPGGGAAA"}, "[10]": {"target": "T6, Amine oxidase [flavin-containing] A (Homo sapiens, UniProt P21397)", "T6 sequence (P21397 whole entry)": "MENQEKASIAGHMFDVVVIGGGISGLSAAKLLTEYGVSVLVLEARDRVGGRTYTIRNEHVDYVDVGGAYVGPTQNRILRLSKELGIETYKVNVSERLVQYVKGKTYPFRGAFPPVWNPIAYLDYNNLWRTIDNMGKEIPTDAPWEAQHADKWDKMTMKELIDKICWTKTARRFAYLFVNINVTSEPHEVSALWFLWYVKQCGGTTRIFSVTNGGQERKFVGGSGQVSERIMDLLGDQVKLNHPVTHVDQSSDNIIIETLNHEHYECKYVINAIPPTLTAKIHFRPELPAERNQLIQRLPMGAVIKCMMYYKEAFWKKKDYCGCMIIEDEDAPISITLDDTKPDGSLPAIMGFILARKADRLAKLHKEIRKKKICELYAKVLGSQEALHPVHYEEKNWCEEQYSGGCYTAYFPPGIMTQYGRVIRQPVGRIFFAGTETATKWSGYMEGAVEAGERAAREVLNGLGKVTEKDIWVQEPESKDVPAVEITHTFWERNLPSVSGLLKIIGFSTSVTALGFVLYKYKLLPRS", "assay_type": "functional"}, "[11]": {"target": "Voltage-dependent L-type calcium channel subunit alpha-1C (Rattus norvegicus, UniProt P22002)", "assay_type": "functional"}, "D(1A) dopamine receptor [12]": {"target": "T7, D(1A) dopamine receptor (Homo sapiens, UniProt P21728)", "T7 sequence (P21728 whole entry)": "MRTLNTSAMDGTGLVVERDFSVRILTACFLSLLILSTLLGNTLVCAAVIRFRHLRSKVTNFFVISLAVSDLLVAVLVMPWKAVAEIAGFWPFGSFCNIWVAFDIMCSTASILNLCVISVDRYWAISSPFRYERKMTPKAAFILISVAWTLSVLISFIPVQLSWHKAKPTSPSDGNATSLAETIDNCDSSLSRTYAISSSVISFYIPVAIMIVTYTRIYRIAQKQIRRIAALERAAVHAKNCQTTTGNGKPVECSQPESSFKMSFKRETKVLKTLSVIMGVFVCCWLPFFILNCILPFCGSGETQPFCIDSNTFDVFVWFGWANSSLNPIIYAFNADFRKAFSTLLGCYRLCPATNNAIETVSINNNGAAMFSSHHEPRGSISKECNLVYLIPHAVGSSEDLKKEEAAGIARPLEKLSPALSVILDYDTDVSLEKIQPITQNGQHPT", "assay_type": "functional, cell-based"}, "[13]": {"target": "T8, Beta-2 adrenergic receptor (Homo sapiens, UniProt P07550)", "T8 sequence (P07550 whole entry)": "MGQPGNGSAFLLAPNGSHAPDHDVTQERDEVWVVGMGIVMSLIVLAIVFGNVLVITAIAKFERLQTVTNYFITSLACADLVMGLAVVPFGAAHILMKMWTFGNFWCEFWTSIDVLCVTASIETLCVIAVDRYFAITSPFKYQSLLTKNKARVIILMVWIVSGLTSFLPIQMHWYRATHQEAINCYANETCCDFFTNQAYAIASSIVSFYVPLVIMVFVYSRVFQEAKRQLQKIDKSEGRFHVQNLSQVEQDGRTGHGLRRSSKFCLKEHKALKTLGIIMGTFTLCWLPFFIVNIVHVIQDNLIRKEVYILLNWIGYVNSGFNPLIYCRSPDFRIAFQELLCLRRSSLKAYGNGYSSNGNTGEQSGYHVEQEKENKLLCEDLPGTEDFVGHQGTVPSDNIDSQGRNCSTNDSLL"}, "[14]": {"target": "T2, Alpha-1A adrenergic receptor", "assay_type": "functional, cell-based", "remark": "listed apart in the source"}, "[15]": {"target": "T9, 5-hydroxytryptamine receptor 2C (Homo sapiens, UniProt P28335)", "T9 sequence (P28335 whole entry)": "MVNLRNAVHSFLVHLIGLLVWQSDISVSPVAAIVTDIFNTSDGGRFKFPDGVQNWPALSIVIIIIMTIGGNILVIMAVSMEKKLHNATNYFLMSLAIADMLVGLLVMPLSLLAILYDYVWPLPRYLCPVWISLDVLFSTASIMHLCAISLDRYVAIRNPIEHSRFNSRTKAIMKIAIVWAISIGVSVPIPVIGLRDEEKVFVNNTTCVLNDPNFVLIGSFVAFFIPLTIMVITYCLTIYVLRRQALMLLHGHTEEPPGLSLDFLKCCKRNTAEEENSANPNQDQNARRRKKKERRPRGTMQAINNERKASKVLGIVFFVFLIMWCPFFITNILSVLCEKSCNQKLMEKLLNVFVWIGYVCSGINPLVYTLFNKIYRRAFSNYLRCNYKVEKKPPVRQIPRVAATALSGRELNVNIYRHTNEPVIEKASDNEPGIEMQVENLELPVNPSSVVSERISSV"}, "[16]": {"target": "Neuronal acetylcholine receptor subunit alpha-4 (Homo sapiens, UniProt P43681)", "sequence (P43681 whole entry)": "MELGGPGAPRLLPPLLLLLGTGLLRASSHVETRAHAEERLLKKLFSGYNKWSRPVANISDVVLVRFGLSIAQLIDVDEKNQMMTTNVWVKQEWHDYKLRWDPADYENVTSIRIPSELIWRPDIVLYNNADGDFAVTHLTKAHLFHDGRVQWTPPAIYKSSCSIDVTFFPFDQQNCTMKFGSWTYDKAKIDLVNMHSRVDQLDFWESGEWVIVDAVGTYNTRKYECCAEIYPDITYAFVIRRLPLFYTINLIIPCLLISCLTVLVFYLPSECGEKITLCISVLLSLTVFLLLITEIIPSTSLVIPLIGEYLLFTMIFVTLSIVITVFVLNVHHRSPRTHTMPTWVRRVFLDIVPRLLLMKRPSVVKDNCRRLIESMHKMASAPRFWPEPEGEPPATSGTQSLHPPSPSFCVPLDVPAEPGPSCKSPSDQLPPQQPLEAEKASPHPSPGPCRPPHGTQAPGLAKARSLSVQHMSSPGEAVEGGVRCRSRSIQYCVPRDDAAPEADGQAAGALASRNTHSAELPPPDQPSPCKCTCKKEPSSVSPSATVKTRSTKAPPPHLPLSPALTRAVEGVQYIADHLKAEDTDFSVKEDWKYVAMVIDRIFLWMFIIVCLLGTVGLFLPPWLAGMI"}, "[17]": {"target": "Kappa-type opioid receptor (Homo sapiens, UniProt P41145)"}, "Histamine H3 receptor": {"target": "Histamine H3 receptor (Homo sapiens, UniProt Q9Y5N1)", "sequence (Q9Y5N1 whole entry)": "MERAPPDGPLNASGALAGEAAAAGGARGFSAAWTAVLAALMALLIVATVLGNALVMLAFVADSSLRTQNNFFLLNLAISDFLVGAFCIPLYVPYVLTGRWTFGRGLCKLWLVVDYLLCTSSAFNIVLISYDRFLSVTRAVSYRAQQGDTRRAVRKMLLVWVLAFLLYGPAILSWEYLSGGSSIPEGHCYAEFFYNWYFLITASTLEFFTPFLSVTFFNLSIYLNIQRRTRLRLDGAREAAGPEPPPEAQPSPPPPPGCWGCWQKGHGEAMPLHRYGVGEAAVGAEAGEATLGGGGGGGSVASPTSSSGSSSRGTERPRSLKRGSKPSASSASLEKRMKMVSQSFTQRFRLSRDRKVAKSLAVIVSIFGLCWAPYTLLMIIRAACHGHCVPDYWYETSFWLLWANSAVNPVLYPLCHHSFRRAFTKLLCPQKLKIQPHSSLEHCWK"}, "Mu-type opioid receptor [18]": {"target": "T5, Mu-type opioid receptor", "test": "biochemical", "assay_type": "functional"}, "D(1A) dopamine receptor [19]": {"target": "T7, D(1A) dopamine receptor", "assay_type": "functional, cell-based", "remark": "listed apart in the source"}, "[20]": {"target": "T1, 5-hydroxytryptamine receptor 1A", "assay_type": "functional, cell-based", "remark": "listed apart in the source"}, "[21]": {"target": "T8, Beta-2 adrenergic receptor", "assay_type": "functional, cell-based"}, "Cannabinoid receptor 1 [22]": {"target": "T10, Cannabinoid receptor 1 (Homo sapiens, UniProt P21554)", "T10 sequence (P21554 whole entry)": "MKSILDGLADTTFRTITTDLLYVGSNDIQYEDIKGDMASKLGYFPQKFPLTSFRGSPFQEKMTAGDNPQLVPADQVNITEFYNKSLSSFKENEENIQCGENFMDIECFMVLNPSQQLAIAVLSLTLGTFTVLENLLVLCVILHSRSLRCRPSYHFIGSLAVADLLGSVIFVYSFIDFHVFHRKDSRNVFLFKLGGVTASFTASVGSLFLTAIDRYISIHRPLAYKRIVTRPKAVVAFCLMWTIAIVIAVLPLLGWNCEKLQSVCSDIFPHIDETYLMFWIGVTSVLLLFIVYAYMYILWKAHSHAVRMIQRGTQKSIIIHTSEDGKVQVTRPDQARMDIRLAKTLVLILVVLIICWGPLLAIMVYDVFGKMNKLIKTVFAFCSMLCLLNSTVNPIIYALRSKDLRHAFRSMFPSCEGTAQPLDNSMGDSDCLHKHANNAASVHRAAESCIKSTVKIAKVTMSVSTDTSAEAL"}, "[23]": {"target": "T3, Gamma-aminobutyric acid receptor subunit alpha-1"}, "[24]": {"target": "Gamma-aminobutyric acid receptor subunit alpha-1/alpha-2/beta-2/gamma-2 (Homo sapiens, UniProt P14867+P18507+P47869+P47870)", "assay_type": "functional, cell-based"}, "[25]": {"target": "T2, Alpha-1A adrenergic receptor"}, "Cannabinoid receptor 1 [26]": {"target": "T10, Cannabinoid receptor 1", "assay_type": "functional, cell-based"}}}
{"smiles": "CN1[C@@H]2CC[C@H]1C[C@@H](OC(c1ccccc1)c1ccccc1)C2", "note": "[BENZTROPINE]", "values": [{"measurement": "AC50", "setting": "Histamine H2 receptor", "value": "> 30", "unit": "µM"}, {"measurement": "AC50", "setting": "[1]", "value": "> 30", "unit": "µM"}, {"measurement": "AC50", "setting": "[2]", "value": "> 30", "unit": "µM"}, {"measurement": "AC50", "setting": "[3]", "value": "> 30", "unit": "µM"}, {"measurement": "AC50", "setting": "[4]", "value": 2.6, "unit": "µM"}, {"measurement": "AC50", "setting": "Mu-type opioid receptor [5]", "value": 6.26, "unit": "µM"}, {"measurement": "AC50", "setting": "[6]", "value": "> 30", "unit": "µM"}, {"measurement": "AC50", "setting": "[7]", "value": "> 10", "unit": "µM"}, {"measurement": "AC50", "setting": "D(3) dopamine receptor", "value": 2.83, "unit": "µM"}, {"measurement": "AC50", "setting": "[8]", "value": 0.137, "unit": "µM"}, {"measurement": "AC50", "setting": "[9]", "value": 11, "unit": "µM"}, {"measurement": "AC50", "setting": "[10]", "value": "> 30", "unit": "µM"}, {"measurement": "AC50", "setting": "[11]", "value": "> 10", "unit": "µM"}, {"measurement": "AC50", "setting": "D(1A) dopamine receptor [12]", "value": 21, "unit": "µM"}, {"measurement": "AC50", "setting": "[13]", "value": "> 30", "unit": "µM"}, {"measurement": "AC50", "setting": "[14]", "value": 0.96, "unit": "µM"}, {"measurement": "AC50", "setting": "[15]", "value": 12.4, "unit": "µM"}, {"measurement": "AC50", "setting": "[16]", "value": "> 30", "unit": "µM"}, {"measurement": "AC50", "setting": "[17]", "value": 0.993, "unit": "µM"}, {"measurement": "AC50", "setting": "Histamine H3 receptor", "value": "> 30", "unit": "µM"}, {"measurement": "AC50", "setting": "Mu-type opioid receptor [18]", "value": 5.3, "unit": "µM"}, {"measurement": "AC50", "setting": "D(1A) dopamine receptor [19]", "value": "> 30", "unit": "µM"}, {"measurement": "AC50", "setting": "[20]", "value": "> 30", "unit": "µM"}, {"measurement": "AC50", "setting": "[21]", "value": "> 30", "unit": "µM"}, {"measurement": "AC50", "setting": "Cannabinoid receptor 1 [22]", "value": "> 10", "unit": "µM"}, {"measurement": "AC50", "setting": "[23]", "value": "> 10", "unit": "µM"}, {"measurement": "AC50", "setting": "[24]", "value": "> 30", "unit": "µM"}, {"measurement": "AC50", "setting": "[25]", "value": 0.078, "unit": "µM"}, {"measurement": "AC50", "setting": "Cannabinoid receptor 1 [26]", "value": "> 30", "unit": "µM"}]}
